Test results reported in US5120720A, “Preparation of lipophile:hydroxypropylcyclodextrin complexes by a method using co-solubilizers” (priority 1990, dated 1992).
Like-named read-outs stand apart in the source and are kept apart here.

How the values were obtained:
[1] = read-out: Stability constant of the complex with β-cyclodextrin, cited from earlier work
[2] = read-out: Stability constant of the complex with α-cyclodextrin, cited from earlier work
[3] = β-cyclodextrin, aqueous sodium hydroxide then phosphoric acid (U.S. Pat. No. 4,883,785, Example 3); cited from earlier work
[4] = assay type: physicochemical
Description: The methods of preparation herein disclosed were also used successfully with the ethanol-soluble peptides such as gramicidin S, complexed with hydroxypropyl-β-cyclodextrin (Example 4). It was also used to prepare the gramicidin S:hydroxypropyl-α-cyclodextrin preparation (Example 5) and gramicidin S:hydroxypropyl-γ-cyclodextrin preparation (Example 6).
The processes disclosed herein differ substantially from those described by Szejtli (p. 268) for the preparation of crystalline β-cyclodextrin:vitamin D3 complexes, which were prepared using organic solvents. In this regard, the procedure described by Szejtli consists of the co-dissolution of components, i.e., of crystalline β-cyclodextrin and vitamin D3, at 50° C. in 60-65% aqueous ethanol, followed by cooling of the clear solution during which crystalline complex of the vitamin precipitates. Moreover, attempts to use Szejtli's procedure for the above complexes were not successful, since concentration of ethanol in the range 60-65% solubilized steroids only incompletely and no precipitation occurred.

[5] = Solubility of freeze-dried complexes or residues in water, and stability of the solutions; assay type: physicochemical; details: attempted complex preparation
Experimental: For a number of applications, complexes in powdery form as prepared by freeze-drying (lyophilizing), are preferable to the glassy residues such as are obtained by the above discussed procedure. Therefore, to obtain complexes in a powdery form, the glassy preparations were dissolved in water (final concentration of hydroxypropyl-β-cyclodextrin was about 10% W/W), sterilized by ultrafiltration and freeze-dried. All of the following exemplary preparations of steroids so prepared, dissolved fully. Moreover, the complexes so obtained were again amorphous and could be tabletted by direct compression.
The solubility of freeze-dried complexes such as those provided below was invariably high. For example, all the complexes of steroids in Examples 1-3 dissolved smoothly in water up to 40% W/W concentration, and these solutions were stable for at least 24 hours.
[…] Full dissolution occurred in five minutes; the solution was then filtered through a membrane filter (pore size 0.22 μm). The filtrate was evaporated at room temperature in vacuo to dryness leaving a glassy residue. […] The yield was 85%.

[6] = source (a) M. Suzuki et al. 1988
[7] = source (b) Y. Matsui and K. Mochida 1979
[8] = source (d) W. Hirsch et al. 1987

Molecule: CCCCCO [n-pentanol]
- Kd [1, 6]: 11.5 mM
- Kd [1, 7]: 15.9 mM
- Kd [2, 6]: 3.33 mM
- Kd [2, 7]: 3.1 mM

Molecule: C[C@@H]1[C@H](O)[C@@H](C)/C=C/C=C/C=C/C=C/C=C/C=C/C=C/[C@H](O[C@@H]2O[C@H](C)[C@@H](O)[C@H](N)[C@@H]2O)C[C@@H]2O[C@](O)(C[C@@H](O)C[C@@H](O)[C@H](O)CC[C@@H](O)C[C@@H](O)CC(=O)O[C@H]1C)C[C@H](O)[C@H]2C(=O)O [amphotericin B]
- Starting drug solubilized [3]: about 1%

Molecule: OC[C@H]1O[C@@H]2O[C@H]3[C@H](O)[C@@H](O)[C@@H](O[C@H]4[C@H](O)[C@@H](O)[C@@H](O[C@H]5[C@H](O)[C@@H](O)[C@@H](O[C@H]6[C@H](O)[C@@H](O)[C@@H](O[C@H]7[C@H](O)[C@@H](O)[C@@H](O[C@H]8[C@H](O)[C@@H](O)[C@@H](O[C@H]1[C@H](O)[C@H]2O)O[C@@H]8CO)O[C@@H]7CO)O[C@@H]6CO)O[C@@H]5CO)O[C@@H]4CO)O[C@@H]3CO [β-cyclodextrin]
- Solubility in 75% ethanol [4]: low solubility

Molecule: N [ammonia]
- Kd [1, 8]: 0.0667 mM
- Kd [2, 8]: 0.0164 mM

Molecule: CCCO [n-propanol]
- Kd [2, 6]: 50 mM
- Kd [2, 7]: 43.5 mM

Molecule: gramicidin D
- Dissolution in ethanol 75% ([4]; ethanol 75%): did not dissolve
- Dissolution in ethanol 95% ([4]; ethanol 95%): dissolved
- Solubility in water of solid residue after evaporation of ethanol 95% solution [5]: insoluble in water

Molecule: CC(C)(C)CO [2,2-dimethyl-1-propanol]
- Kd [1, 6]: 1.52 mM
- Kd [1, 7]: 1.72 mM
- Kd [2, 6]: 33.3 mM

Molecule: CC(C)(C)O [t-butanol]
- Kd [1, 6]: 23.8 mM
- Kd [1, 7]: 20.8 mM

Molecule: CCCCO [n-butanol]
- Kd [2, 6]: 9.09 mM
- Kd [2, 7]: 11.2 mM
